One block for each compound: values may come before it. Bridges are numbered along the chain shown (N, C = ends). Where no end group is shown, it is not given here.
How the values were obtained:
A549 cells = assay: Confocal imaging of LAT9991F-PAL binding and LANCL1 co-localization, with siRNA knockdown and competitors, in A549 cells; type: cell-based; conditions: for Competition of LAT9991F-PAL binding by excess competitor: competitor 25 μM
Description: (§1) A photoactivatable analog of LAT8881 (LAT9991F (SEQ ID NO:13)-PAL), was used to conduct the experiments. A549 or NCI-H358 cells were treated with LAT9991F-PAL at 2.5 μM during 30 minutes. Fluorescent signal was recorded after that LAT9991F-PAL was immobilized on its target(s) site by UV-crosslinking and the LAT9991F-PAL-target complexes were labeled with the green-fluorescent Alexa Fluor 488 alkyne dye by click-chemistry. Control cells were treated with the vehicle, dimethyl sulfoxide (DMSO), and with LAT9991F-PAL in combination with a large excess of the parent drug LAT8881 or other competitors, GSH, NSC61610 or ABA to evaluate, respectively, the non-specific fluorescent background and the specificity of the staining. For colocalization experiments, subsequently, immunofluorescence staining with an anti-LANCL1 or LANCL2 antibodies and an Alexa 568 (red) conjugated secondary antibody was performed. Images stacks of cells labeled with probes were collected and evaluated for the degree of colocalization of LAT9991F-PAL-target complexes and LANCL1 or LANCL2 using either the Measure Colocalization plugin in Metamorph or the JACoP plugin in ImageJ).
(§2) A549 or NCI-H358 cells (ATCC CCL-185 and ATCC CRL-5807, respectively) were cultured in appropriate medium containing 10% heat-inactivated FBS (Dutscher, #SV30160-036), 1% penicillin/streptomycin (Gibco, #15140-122) and maintained in a humidified 37° C. incubator with 5% CO2.
(§3) LAT9991F-PAL was dissolved in DMSO to make a 10 mM stock solution. Intermediate solutions at 25 μM and 2.5 μM were made in the culture medium from the 10 mM stock solutions of LAT8881 and LAT9991F-PAL, respectively. A two-fold dilution into PBS of each intermediate solution was used for cell treatment. A stock solution at 10 mM was prepared for the other competitors as GSH, NSC61610 and ABA. A final concentration at 25 μM was used for the assay.
(§4) A549 or NCI-H358 cells were seeded onto ibidiTreat Polymer Coverslips (Ibidi, #80826) at 2.5×10^5 cells/cm^2 in 200 μl of complete medium. After 24 hours, the medium was removed and cells were washed with PBS (Gibco, #10010049) and then pre-treated with the Taxol at 1 μM for 3 hours or with H2O2 25 μM for 2 hours. Cells were washed twice with PBS. Induced stress cells or control cells were then exposed to LAT9991F-PAL (2.5 μM) in PBS for 30 minutes, in the presence or absence of LAT8881 (25 μM), or the other compounds used as a competitor, and pre-incubated 10 minutes. After treatment, cells were washed with cold PBS and UV-irradiated (365 nm) in PBS for 20 min. After fixation with 4% paraformaldehyde and permeabilization (0.5% Triton/PBS) (Image-iT™ Fixation/Permeabilization Kit, ThermoFisher, #R37602), the bioorthogonal reaction with Alexa Fluor 488 Alkyne (1 μM) (ThermoFisher, #A10267) was performed at 25° C. using the Click-iT™ Cell Reaction Buffer Kit (ThermoFisher, #C10269) according to the manufacturer protocol. After click reaction, cells were washed twice with PBS, blocked with 3% BSA in PBS for 1 hour and stained with Hoechst 33342 dye (ThermoFisher, #H1399).
(§5) For colocalization experiments, cells were further incubated overnight at 4° C. with a mouse anti-LanCL1 antibody (Invitrogen, PAS-57-107) (dilution 1:1000) or LanCL2 (Atlas Antibodies HPA019711) (dilution 1:1000) in 3% BSA in PBS, washed twice with PBS, and then incubated respectively with a goat anti-mouse […] (Molecular Probes, #A21467) (dilution 1:800) for 1 h in 3% BSA in PBS. After three further washing steps with PBS, cells were embedded in Ibidi Mounting Medium (ibidi, #50001). The specimens were kept at 4° C. in the dark until analysis.
Images were acquired on an Axiovert200M (Zeiss) microscope using a CSU-W1 Yokogawa confocal unit. This microscope is equipped with a plan Apochromat X40 dry objective numerical aperture (NA) 0.95 and a Neofluar X100 oil immersion objective NA 1.45. Images were capture with an EMCCD camera (Prior, ProEM 1024×1024).

NCI-H358 cells = assay: Confocal imaging of LAT9991F-PAL binding and LANCL1 co-localization, with siRNA knockdown and competitors, in NCI-H358 cells; type: cell-based; conditions: for Competition of LAT9991F-PAL binding by excess competitor: competitor 25 μM
Description: as §1, §2, §3
ibidiTreat Polymer Coverslips (Ibidi, #80826) were coated with serum during 1 hour at 37° C., followed by Laminin (100 μg\ml) (incubation for 1 hour at 37° C.) for NCI-H358 cells.
as §4, §5
Images were acquired on an Axiovert200M (Zeiss) microscope using a CSU-W1 Yokogawa confocal unit.

human recombinant LANCL1 = target: T1, human recombinant LANCL1 (Homo sapiens, UniProt O43813); assay: In-gel fluorescence: photolabelling of recombinant LANCL1 with PAL probes, with or without excess competitor; type: binding; conditions: for Inhibition of LAT9991-PAL binding to recombinant LANCL1 by excess competitor: probe LAT9991-PAL, excess unlabelled competitor
T1 construct: purchased ABCAM ab181923; host or cells: E. coli
Description: The in-gel fluorescence protocol can be briefly described as follows:
1. LANCL1 Labelling, Assay on 96 Well Plate, Volume of the Reaction 40 μl in PBS
3 μg/well of human recombinant LANCL1 (ABCAM catalog no. ab181923, 1 mg/ml; expressed in E. Coli and incorporating an N-terminal 23 amino acid hexaHis tag; UniProtKB/Swiss-Prot Accession no: O43813);
• Vehicle DMSO • ±LAT8881 (a cyclic peptide fragment of human growth hormone; SEQ ID NO:1) • SEQ ID NO:1) as competitor @ 25, 50, 100 or 200 μM, pre-incubation 10 min, 4 μl of a stock solution 10-fold concentrated • ±LAT9991-PAL, LAT7771-PAL or LAT9993-PAL probes @ 1 μM, incubation 30 min at room temperature on a plate agitator (protected from light), 4 μl of a stock solution @10 μM
• Irradiation @ 365 nm 20 min (4° C., on a support containing ice) Transfer 40 μl in a clean Eppendorf tube
• Reduction: DTT 10 mM, 30 min @ 56° C. • Alkylation: Iodoacetamide 30 mM, 45 min @ RT Click-iT AzideTamra of 60 μL samples
• Acetone Precipitation −20° C. ON • Dry pellet resuspended in 30 μL 1% SDS in 50 mM Tris-HCl pH 7.5 • Photolabeled LANCL1 was tagged with tetramethylrhodamine (TAMRA) azide @100 μM TAMRA azide by copper click chemistry using the Click-iT Protein Reaction Buffer Kit (ThermoFisher Scientific) during 30 minutes • Precipitation using the chloroform-methanol method, pellet was air-dried for 10 min at room temperature, resuspended in 30 μL SDS loading buffer (Bio Rad's XT Sample Buffer containing 2.5% v/v 2-mercaptoethanol) and heated (60° C., 30 min)
• SDS-PAGE (4-15% Criterion™ TGX Stain-Free™ Protein Gel, Bio Rad) • Analyzed by in-gel fluorescence scanning using a ChemiDoc™ MP Imaging System (Bio Rad) with a green LED light as an excitation source and a BP600/20 nm emission filter

[1] = system: tissue homogenates of nerve from neuropathic animals; assay: PAL cross-linking to nerve tissue homogenates and gel separation; type: binding
Source text: Using a ligand driven approach, the present inventors utilized the photo-activatable cross-linking PAL from Evotec A.G. (Photo-Activated Labelling) technology that derivatizes the active cyclic peptides to allow UV-induced cross-linking to binding targets (described herein as peptide/SEQ ID NO:X-PAL). This allows subsequent detection in cells, gels of tissue isolates or in pull-down of the peptide/target complex for sequencing by mass spectroscopy (PALMS).
LAT9991-PAL was cross-linked to tissue homogenates of nerve from neuropathic animals.

T1 sequence (O43813 with tags, fused parts or gaps): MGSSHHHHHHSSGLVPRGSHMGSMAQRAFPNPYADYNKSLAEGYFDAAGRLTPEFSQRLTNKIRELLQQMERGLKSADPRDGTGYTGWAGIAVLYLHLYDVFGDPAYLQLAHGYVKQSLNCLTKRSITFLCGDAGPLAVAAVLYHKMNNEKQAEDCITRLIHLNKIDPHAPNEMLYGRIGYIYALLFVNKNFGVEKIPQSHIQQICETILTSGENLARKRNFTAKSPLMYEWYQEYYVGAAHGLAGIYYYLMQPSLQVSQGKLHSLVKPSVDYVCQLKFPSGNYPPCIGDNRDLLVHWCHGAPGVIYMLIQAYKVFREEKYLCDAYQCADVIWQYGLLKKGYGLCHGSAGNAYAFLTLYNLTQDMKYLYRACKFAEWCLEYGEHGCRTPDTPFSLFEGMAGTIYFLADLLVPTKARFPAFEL

Compound: O=C(Nc1cccc(-c2nc3ccccc3[nH]2)c1)c1ccc(C(=O)Nc2cccc(-c3nc4ccccc4[nH]3)c2)cc1 [NSC61610, reference compound]
Competition of LAT9991F-PAL binding by excess competitor (A549 cells; SiLANCL1 A549 cells): strongly competed off | Competition of LAT9991F-PAL binding by excess competitor (NCI-H358 cells; SiLANCL1 NCI-H358 cells): strongly competed off

Compound: N[C@@H](CCC(=O)N[C@@H](CS)C(=O)NCC(=O)O)C(=O)O [glutathione, reference compound]
Competition of LAT9991F-PAL binding by excess competitor (A549 cells; SiLANCL1 A549 cells): partially competed off | Competition of LAT9991F-PAL binding by excess competitor (NCI-H358 cells; SiLANCL1 NCI-H358 cells): partially competed off

Inhibition of LAT9991-PAL binding to recombinant LANCL1 by excess competitor (human recombinant LANCL1): inhibited
Compound: CRIIHNNNC [LAT7771]
Competition of LAT9991F-PAL binding by excess competitor (A549 cells; SiLANCL1 A549 cells): partially competed off | Competition of LAT9991F-PAL binding by excess competitor (NCI-H358 cells; SiLANCL1 NCI-H358 cells): partially competed off

Compound: LAT9991F-PAL: A photoactivatable analog of LAT8881 (LAT9991F (SEQ ID NO:13)-PAL) (CRSVEGSCGF; disulfide 1-8 (inferred); also: PAL cross-linking group, site not given here)
Co-localization of LANCL1 and probe binding (A549 cells; A549 cells, confocal microscopy, probe 2.5 μM): co-localization | Co-localization of LANCL1 and probe after siRNA knockdown of LANCL1 (A549 cells; SiLANCL1 A549 cells): lost | Level of probe binding in siLANCL1 cells following induced oxidative stress (A549 cells; siLANCL1 A549 cells, H2O2 25 μM 2 hours or Taxol 1 μM 3 hours, vs SiControl): less intense as compared to control cells | Co-localization of LANCL1 and probe binding (NCI-H358 cells; NCI-H358 cells, confocal microscopy, probe 2.5 μM): co-localization | Co-localization of LANCL1 and probe after siRNA knockdown of LANCL1 (NCI-H358 cells; SiLANCL1 NCI-H358 cells): lost | Level of probe binding in siLANCL1 cells following stress (NCI-H358 cells; siLANCL1 NCI-H358 cells, vs control cells): less intense as compared to control cells

Binding of PAL probe to recombinant LANCL1 (human recombinant LANCL1; in-gel fluorescence after UV (365 nm) cross-linking): bound to recombinant LANCL1
Compound: LAT9993S-PAL: LAT9993S (SEQ ID NO:44) derivatized with the PAL photo-activatable cross-linking group (SCRSRPVESSCS; disulfide 2-11 (inferred); also: ['PAL photo-activatable cross-linking group, structure and site not given here'])
Cross-linking of PAL probe to tissue homogenates of nerve from neuropathic animals [1]: shown to cross-link | Molecular weight ranges of targets stained after gel separation ([1]; PAL probe cross-linked to nerve homogenates): ˜12-15 kD, ˜37 kD and ˜50 kD

Inhibition of LAT9991-PAL binding to recombinant LANCL1 by excess competitor (human recombinant LANCL1): inhibited
Compound: SCRSRPVESSCS [LAT9993S]
Competition of LAT9991F-PAL binding by excess competitor (A549 cells; SiLANCL1 A549 cells): partially competed off | Competition of LAT9991F-PAL binding by excess competitor (NCI-H358 cells; SiLANCL1 NCI-H358 cells): partially competed off

— US20230064978A1, “CYCLIC PEPTIDE RECEPTOR LANTHIONINE SYNTHETASE C-LIKE PROTEIN (LANCL) AND USES THEREOF” (LATERAL IP PTY LTD, priority 2019, published 2023)
